In patent US9873690B2, “3-indol substituted derivatives, pharmaceutical compositions and methods for use” (Pfizer Inc., priority 2015, dated 2018):

Molecular target: T1, hTDO2 (Homo sapiens, UniProt P48775)
T1 construct: endogenous in cells; host or cells: A172 human brain glioblastoma cells (ATCC CRL-1620)
Test: Cellular assay for TDO2 activity determination in A172 cells
Type: cell-based
Conditions: human glioblastoma A172 cells naturally expressing hTDO2; overnight incubation; kynurenine by absorbance at 480 nm
Method: The compounds of formula I inhibit the activity of human TDO2 in cells that constitutively express TDO2, such as A172 cells. A172 is a cell line derived from human brain glioblastoma cells. The cells are available from the American Type Culture Collection (ATCC®) as CRL-1620™.
The assay (adapted from Pilotte L et al., Proc Natl Acad Sci USA, 2012, 109(7), 2497-502) was performed in 96-well flat bottom plates seeded with human glioblastoma A172 cells, naturally expressing hTDO2 (prepared as described in Tilman et al., Mol Cancer, 2007, 17(6), 80), at a concentration of 1.25×10^4 cells/well in a final volume of 200 μL. To determine TDO, the cells were incubated overnight at 37° C. at 5% CO2 in IMDM (Invitrogen) supplemented with 2% FBS and 2% penicillin/streptomycin in the presence of the compounds of the present invention, at different concentrations.
The plates were then centrifuged 5 min at 1000 rpm, and 100 μL of the supernatant were collected in a conical plate, 30 μL of TCA 30% were added and a further centrifuged at 3000×g for 10 minutes. 100 μL of the supernatant were collected in a flat bottomed plate and 100 μL of 2% (w/v) 4-(dimethylamino)-benzaldehyde in acetic acid and incubated for 5 min at room temperature. Kynurenine concentrations were determined by measuring the absorbance at 480 nm. A standard curve was made with pure kynurenine. The TDO activity was measured as described above using ten serial concentrations of the compounds of the present invention. Data were fitted using the Prism™ software (GraphPad Software, Inc.) using standard parameters.
The biological activity of representative compounds in human brain glioblastoma cells as determined in the above-referenced assay is summarized in the following table: […]

T1 sequence (P48775 whole entry): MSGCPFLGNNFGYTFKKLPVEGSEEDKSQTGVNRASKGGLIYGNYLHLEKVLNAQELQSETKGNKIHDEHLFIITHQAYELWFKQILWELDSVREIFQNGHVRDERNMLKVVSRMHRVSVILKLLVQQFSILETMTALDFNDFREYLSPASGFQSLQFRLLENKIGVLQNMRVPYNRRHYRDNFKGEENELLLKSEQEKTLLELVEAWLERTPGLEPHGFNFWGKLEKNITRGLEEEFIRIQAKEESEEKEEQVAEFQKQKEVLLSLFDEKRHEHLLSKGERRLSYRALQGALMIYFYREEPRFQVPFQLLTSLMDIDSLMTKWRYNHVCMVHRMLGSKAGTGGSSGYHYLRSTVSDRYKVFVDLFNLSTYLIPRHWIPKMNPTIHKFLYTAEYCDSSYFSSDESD

| IC50 [nM] | Structure (SMILES) |
| --- | --- |
| 58 | CC1c2cc(-c3c[nH]c4cc(F)ccc34)ccc2S(=O)(=O)N1CC1(C)COC(=O)N1 (single isomer, unassigned; (+)) [Example 89, (+)-4-((5-(6-fluoro-1H-indol-3-yl)-3-methyl-1,1-dioxidobenzo[d]isothiazol-2(3H)-yl)methyl)-4-methyloxazolidin-2-one] |
| 328 | CNC(=O)CCN1C(C)c2cc(-c3c[nH]c4cc(F)ccc34)ccc2S1(=O)=O (single isomer, unassigned; (-)) [Example 46, (−)-3-(5-(6-fluoro-1H-indol-3-yl)-3-methyl-1,1-dioxidobenzo[d]isothiazol-2(3H)-yl)-N-methylpropanamide] |
| 221 | NCCN1Cc2cc(-c3c[nH]c4cc(F)ccc34)ccc2S1(=O)=O [Example 31, 2-(2-aminoethyl)-5-(6-fluoro-1H-indol-3-yl)-2,3-dihydrobenzo[d]isothiazole 1,1-dioxide] |
| 190 | O=S1(=O)c2ccc(-c3c[nH]c4cc(F)ccc34)cc2C(CO)N1CC(O)CO (single isomer, unassigned; (+)) [Example 144, (+)-2-(2,3-dihydroxypropyl)-5-(6-fluoro-1H-indol-3-yl)-3-(hydroxymethyl)-2,3-dihydrobenzo[d]isothiazole 1,1-dioxide] |
| 8090 | COC(=O)C1NS(=O)(=O)c2ccc(-c3c[nH]c4cc(F)ccc34)cc21 (racemic) [Example 14, methyl 5-(6-fluoro-1H-indol-3-yl)-2,3-dihydrobenzo-[d]isothiazole-3-carboxylate 1,1-dioxide] |
| 89 | O=S1(=O)c2ccc(-c3c[nH]c4cc(F)ccc34)cc2CN1CCO [Example 33, 5-(6-fluoro-1H-indol-3-yl)-2-(2-hydroxyethyl)-2,3-dihydrobenzo[d]isothiazole 1,1-dioxide] |
| 152 | CC1c2cc(-c3c[nH]c4cc(F)ccc34)ccc2S(=O)(=O)N1C[C@@]1(C)CCC(=O)N1 (single isomer, unassigned; (-)) [Example 83] |
| 53 | CC1c2cc(-c3c[nH]c4cc(F)ccc34)ccc2S(=O)(=O)N1CCc1n[nH]c(=O)o1 (single isomer, unassigned; (+)) [Example 134, (+)-5-(2-(5-(6-fluoro-1H-indol-3-yl)-3-methyl-1,1-dioxidobenzo[d]isothiazol-2 (3H)-yl)ethyl)-1,3,4-oxadiazol-2(3H)-one] |
| 345 | CCOC(=O)NCCN1C(C)c2cc(-c3c[nH]c4cc(F)ccc34)ccc2S1(=O)=O (single isomer, unassigned; (-)) [Example 109, (−)-ethyl (2-(5-(6-fluoro-1H-indol-3-yl)-3-methyl-1,1-dioxidobenzo[d]isothiazol-2(3H)-yl)ethyl)carbamate] |
| 174 | CC1c2cc(-c3c[nH]c4cc(F)ccc34)ccc2S(=O)(=O)N1CC1CCNCC1 (single isomer, unassigned; (+)) [Example 78, (+)-5-(6-fluoro-1H-indol-3-yl)-3-methyl-2-(piperidin-4-ylmethyl)-2,3-dihydrobenzo[d]isothiazole 1,1-dioxide] |
| 33 | CNC(=O)C(O)CN1C(C)c2cc(-c3c[nH]c4cc(F)ccc34)ccc2S1(=O)=O (single isomer, unassigned; (-)) [Example 100, (−)-3-(5-(6-fluoro-1H-indol-3-yl)-3-methyl-1,1-dioxidobenzo[d]isothiazol-2(3H)-yl)-2-hydroxy-N-methylpropanamide] |
| 199 | CC1c2cc(-c3c[nH]c4cc(F)ccc34)ccc2S(=O)(=O)N1CCC(N)=O (single isomer, unassigned; (+)) [Example 47, (+)-3-(5-(6-fluoro-1H-indol-3-yl)-3-methyl-1,1-dioxidobenzo[d]isothiazol-2(3H)-yl)propanamide] |
| 70 | CC1c2cc(-c3c[nH]c4cc(F)ccc34)ccc2S(=O)(=O)N1CCS(C)(=O)=O (single isomer, unassigned; (+)) [Example 53, (+)-5-(6-fluoro-1H-indol-3-yl)-3-methyl-2-(2-(methylsulfonyl)ethyl)-2,3-dihydrobenzo[d]isothiazole 1,1-dioxide] |
| 67 | CC1c2cc(-c3c[nH]c4cc(F)ccc34)ccc2S(=O)(=O)N1CCS(N)(=O)=O (single isomer, unassigned; (-)) [Example 62, (−)-2-(5-(6-fluoro-1H-indol-3-yl)-3-methyl-1,1-dioxidobenzo[d]-isothiazol-2(3H)-yl)ethane-1-sulfonamide] |
| 191 | CC1c2cc(-c3c[nH]c4cc(F)ccc34)ccc2S(=O)(=O)N1CCN1CCOCC1 (single isomer, unassigned; (+)) [Example 118, (+)-5-(6-fluoro-1H-indol-3-yl)-3-methyl-2-(2-morpholinoethyl)-2,3-dihydrobenzo[d]isothiazole 1,1-dioxide] |
| 47 | CC(C)C1NS(=O)(=O)c2ccc(-c3c[nH]c4cc(F)ccc34)cc21 (single isomer, unassigned; (+)) [Example 8, (+)-5-(6-fluoro-1H-indol-3-yl)-3-isopropyl-2,3-dihydrobenzo[d]isothiazole 1,1-dioxide] |
| 49 | CC(=O)N1CCC(N2C(C)c3cc(-c4c[nH]c5cc(F)ccc45)ccc3S2(=O)=O)C1 (single isomer, unassigned; (-)) [Example 75, (−)-1-(3-(5-(6-fluoro-1H-indol-3-yl)-3-methyl-1,1-dioxidobenzo[d]isothiazol-2(3H)-yl)pyrrolidin-1-yl)ethanone] |
| 358 | CC1c2cc(-c3c[nH]c4cc(F)ccc34)ccc2S(=O)(=O)N1CC1(C)COC(=O)N1 (single isomer, unassigned; (+)) [Example 90, (+)-4-((5-(6-fluoro-1H-indol-3-yl)-3-methyl-1,1-dioxidobenzo[d]isothiazol-2(3H)-yl)methyl)-4-methyloxazolidin-2-one] |
| 255 | NC(=O)CCN1Cc2cc(-c3c[nH]c4cc(F)ccc34)ccc2S1(=O)=O [Example 44, 3-(5-(6-fluoro-1H-indol-3-yl)-1,1-dioxidobenzo[d]isothiazol-2(3H)-yl)propanamide] |
| 186 | CC1c2cc(-c3c[nH]c4cc(F)ccc34)ccc2S(=O)(=O)N1C1CCNCC1 (single isomer, unassigned; (-)) [Example 51, (−)-5-(6-fluoro-1H-indol-3-yl)-3-methyl-2-(piperidin-4-yl)-2,3-dihydrobenzo[d]isothiazole 1,1-dioxide] |
| 342 | O=S1(=O)c2ccc(-c3c[nH]c4cc(F)ccc34)cc2CN1[C@H]1CCOC1 [Example 39, (S)-5-(6-fluoro-1H-indol-3-yl)-2-(tetrahydrofuran-3-yl)-2,3-dihydrobenzo[d]isothiazole 1,1-dioxide] |
| 269 | CC1c2cc(-c3c[nH]c4cc(F)ccc34)ccc2S(=O)(=O)N1C[C@@H](O)CO (single isomer, unassigned) [Example 93] |
| 61 | CC1c2cc(-c3c[nH]c4cc(F)ccc34)ccc2S(=O)(=O)N1C[C@]1(C)CCC(=O)N1 (single isomer, unassigned; (+)) [Example 82] |
| 120 | CNC(=O)C(N)CN1C(C)c2cc(-c3c[nH]c4cc(F)ccc34)ccc2S1(=O)=O (single isomer, unassigned; (+)) [Example 104, (+) 2-amino-3-(5-(6-fluoro-1H-indol-3-yl)-3-methyl-1,1-dioxidobenzo[d]isothiazol-2(3H)-yl)-N-methylpropanamide] |
| 126 | O=S1(=O)NC(CCO)c2cc(-c3c[nH]c4cc(F)ccc34)ccc21 (single isomer, unassigned; (-)) [Example 29, (−)-5-(6-fluoro-1H-indol-3-yl)-3-(2-hydroxyethyl)-2,3-dihydrobenzo[d]isothiazole 1,1-dioxide] |
| 87 | CNC(=O)CN1C(CO)c2cc(-c3c[nH]c4cc(F)ccc34)ccc2S1(=O)=O (single isomer, unassigned; (-)) [Example 127, (−)-2-(5-(6-fluoro-1H-indol-3-yl)-3-(hydroxymethyl)-1,1-dioxidobenzo[d]isothiazol-2(3H)-yl)-N-methylacetamide] |
| 267 | CC1c2cc(-c3c[nH]c4cc(F)ccc34)ccc2S(=O)(=O)N1CC[S+](C)[O-] (single isomer, unassigned; (+)) [Example 58, (+)-5-(6-fluoro-1H-indol-3-yl)-3-methyl-2-(2-(methylsulfinyl)ethyl)-2,3-dihydrobenzo[d]isothiazole 1,1-dioxide] |
| 10000 | CNC(=O)C1NS(=O)(=O)c2ccc(-c3c[nH]c4cc(F)ccc34)cc21 (single isomer, unassigned; (-)) [Example 17, (−)-5-(6-fluoro-1H-indol-3-yl)-N-methyl-2,3-dihydrobenzo[d]isothiazole-3-carboxamide 1,1-dioxide] |
| 27 | CC1c2cc(-c3c[nH]c4cc(F)ccc34)ccc2S(=O)(=O)N1C1CNC1 (single isomer, unassigned; (+)) [Example 92, (+)-2-(azetidin-3-yl)-5-(6-fluoro-1H-indol-3-yl)-3-methyl-2,3-dihydrobenzo[d]isothiazole 1,1-dioxide] |
